“Also recorded” adds a separate entry of the source. Bridge positions count the residues as written; N and C are the ends. Square brackets hold non-standard residues; d marks the D form. Ends that are not written are not given here. I, II: the chains in the order shown. βAla = NCCC(=O)O
What was measured:
[1] = system: CEM or C8166 cells; details: concentrations of 10^-7 to 10^-4M; 15 days
Experimental: (§1) An MTT assay, a colorimetric cell viability assay using 3-[4,5-Dimethylthiazol-2-yl] 2,5-diphenyltetrazolium bromide, was used to assess the effect of MBPCs on cell viability. CEM or C8166 cells (5x10^4) were cultured continuously (15 days) in the presence of various concentrations of MBPCs in the wells of 96-well microtiter plates in 200 µl final volume of RPMI 1640 medium supplemented with 5% fetal calf serum, 1% glutamine, 1% streptomycin-penicillin (available from Gibco of Irvine, Scotland) in a humidified atmosphere with 5% CO2. Every 3 to 4 days, an MTT assay was performed on 100 µl of cells suspension and MBPC were added to cell culture and the volume completed to 200 µl.

[2] = system: 8E5 cells; test: Toxicity in the cell fusion test (MTT assay or trypan blue exclusion); details: Concentration (M) 5x10^-5
Experimental: Toxicity was evaluated by either MTT assay (described below) or trypan blue exclusion technique.
as §1

[3] = system: RT-deficient HIV-I(IIIB) isolate; test: Inhibition of HIV-I induced cell fusion (8E5 cells co-cultivated with PHA stimulated human PBLs); type: cell-based; details: for Inhibition of HIV-I induced cell fusion (number of syncytia): after 24 hours
Excerpt: 50 x 10^3 8E5 cells chronically infected with a RT-deficient HIV-I(IIIB) isolate, were co-cultivated with 150 x 10^3 phytohemagglutinin (PHA) stimulated human peripheral blood lymphocytes (PBLs) in the presence of the indicated peptide in 96-well plates. The MBPCs used are described by the peptides attached, and the number thereof, to a core lysine matrix, which is designated MLC. All amino acids used for this experiment were in dextro form.

[4] = system: HIV-1(89.6); test: Infection of and syncytia formation in human primary macrophages; type: cell-based; details: MBPC 5x10^-5M; 10,000 TCID50; 4 days post-infection
Excerpt: Mononuclear cells were isolated from leukophoresis units enriched for monocytes by Ficoll-Hypaque density separation. Macrophages were purified by adherence to plastic in RPMI 1640 supplemented with 10% fetal calf serum and 5% human AB serum. […] After thorough washing, the cells were fed again with medium and analyzed for HIV-1 p24^gag production and syncytia formation 4 days post-infection.

Row | Compound | toxicity to cells (MTT assay) [1] | Toxicity [2] | Toxicity ([2]; listed as [RKSIHIGPGRAFYT]4-MLC) | syncytia formation / cell fusion (in words) [3] | Inhibition of HIV-I induced cell fusion (number of syncytia) ([3]; Concentration (M) 5x10^-5) | Inhibition of HIV-I induced cell fusion (number of syncytia) ([3]; Concentration (M) 5 x10^-6) | Inhibition of HIV-I induced cell fusion (number of syncytia) ([3]; Concentration (M) 5x10^-7) | infection of macrophages (in words) [4]
1 | C[C@H](NC(=O)[C@H](CCCNC(=N)N)NC(=O)CNC(=O)[C@@H]1CCCN1C(=O)CN)C(=O)N[C@@H](Cc1ccccc1)C(=O)NCCCC[C@H](NC(=O)[C@H](Cc1ccccc1)NC(=O)[C@H](C)NC(=O)[C@H](CCCNC(=N)N)NC(=O)CNC(=O)[C@@H]1CCCN1C(=O)CN)C(=O)NCCCC[C@H](NC(=O)[C@H](CCCCNC(=O)[C@H](Cc1ccccc1)NC(=O)[C@H](C)NC(=O)[C@H](CCCNC(=N)N)NC(=O)CNC(=O)[C@@H]1CCCN1C(=O)CN)NC(=O)[C@H](Cc1ccccc1)NC(=O)[C@H](C)NC(=O)[C@H](CCCNC(=N)N)NC(=O)CNC(=O)[C@@H]1CCCN1C(=O)CN)C(=O)NCCCC[C@H](NC(=O)[C@H](CCCCNC(=O)[C@H](CCCCNC(=O)[C@H](Cc1ccccc1)NC(=O)[C@H](C)NC(=O)[C@H](CCCNC(=N)N)NC(=O)CNC(=O)[C@@H]1CCCN1C(=O)CN)NC(=O)[C@H](Cc1ccccc1)NC(=O)[C@H](C)NC(=O)[C@H](CCCNC(=N)N)NC(=O)CNC(=O)[C@@H]1CCCN1C(=O)CN)NC(=O)[C@H](CCCCNC(=O)[C@H](Cc1ccccc1)NC(=O)[C@H](C)NC(=O)[C@H](CCCNC(=N)N)NC(=O)CNC(=O)[C@@H]1CCCN1C(=O)CN)NC(=O)[C@H](Cc1ccccc1)NC(=O)[C@H](C)NC(=O)[C@H](CCCNC(=N)N)NC(=O)CNC(=O)[C@@H]1CCCN1C(=O)CN)C(=O)NCCC(=O)O [MBPC.3, (GPGRAF)8-(K)4-(K)2-K-βA-OH] | not toxic |  |  |  |  |  |  | 
2 | C[C@H](NC(=O)[C@@H](CCCNC(=N)N)NC(=O)CNC(=O)[C@@H]1CCCN1C(=O)CN)C(=O)N[C@@H](Cc1ccccc1)C(=O)NCCCC[C@H](NC(=O)[C@H](Cc1ccccc1)NC(=O)[C@H](C)NC(=O)[C@@H](CCCNC(=N)N)NC(=O)CNC(=O)[C@@H]1CCCN1C(=O)CN)C(=O)NCCCC[C@H](NC(=O)[C@H](CCCCNC(=O)[C@H](Cc1ccccc1)NC(=O)[C@H](C)NC(=O)[C@@H](CCCNC(=N)N)NC(=O)CNC(=O)[C@@H]1CCCN1C(=O)CN)NC(=O)[C@H](Cc1ccccc1)NC(=O)[C@H](C)NC(=O)[C@@H](CCCNC(=N)N)NC(=O)CNC(=O)[C@@H]1CCCN1C(=O)CN)C(=O)NCCCC[C@H](NC(=O)[C@H](CCCCNC(=O)[C@H](CCCCNC(=O)[C@H](Cc1ccccc1)NC(=O)[C@H](C)NC(=O)[C@@H](CCCNC(=N)N)NC(=O)CNC(=O)[C@@H]1CCCN1C(=O)CN)NC(=O)[C@H](Cc1ccccc1)NC(=O)[C@H](C)NC(=O)[C@@H](CCCNC(=N)N)NC(=O)CNC(=O)[C@@H]1CCCN1C(=O)CN)NC(=O)[C@H](CCCCNC(=O)[C@H](Cc1ccccc1)NC(=O)[C@H](C)NC(=O)[C@@H](CCCNC(=N)N)NC(=O)CNC(=O)[C@@H]1CCCN1C(=O)CN)NC(=O)[C@H](Cc1ccccc1)NC(=O)[C@H](C)NC(=O)[C@@H](CCCNC(=N)N)NC(=O)CNC(=O)[C@@H]1CCCN1C(=O)CN)C(=O)NCCC(=O)O [[GPG(R)DAF]8-MLC] |  | Toxic |  |  |  |  |  | 
3 | I: RKSIHIGPGRAFYTKK[βAla] / II: RKSIHIGPGRAFYTK / III: RKSIHIGPGRAFYT / IV: RKSIHIGPGRAFYT (amide I:15-IV:C, I:16-II:C, II:15-III:C) [MBPC.5] |  |  | some toxicity; also recorded: Toxic |  |  |  |  | 
4 | [Ac-GPGRAF]8-MLC |  |  |  | significant loss of activity | - (- indicates the total absence of syncytia in the well) | +++ | +++ | 
5 | [GPGRAF]8-MLCD |  |  |  |  | +++ | +++ | +++ | significantly less active than [GPGRAF]8-MLC
6 | [GPGRA]8-MLC |  |  |  | did not inhibit cell fusion | +++ | +++ | +++ | 
7 | [GPGR]8-MLC |  |  |  | did not inhibit cell fusion | +++ | +++ | +++ | 
8 | [IGPGRAF]8-MLC |  |  |  | significant loss of activity | - (- indicates the total absence of syncytia in the well) | ± | +++ | 
9 | [RKSIHKGPGRAFYT]4-MLC |  | Toxic |  |  |  | - (- indicates the total absence of syncytia in the well) | +++ | 
10 | [RKSIHTGPGRAFYT]4-MLC |  | Toxic |  |  |  | - (- indicates the total absence of syncytia in the well) | +++ | 
